Reference: PubChem BioAssay AID1159557 (GlaxoSmithKline (GSK), 2015)
Calls of active or inactive are those of the source. How the calls were made is not given here.

Tested on: Trypanosoma brucei growth inhibition
Assay: trypanosome proliferation inhibitors (AID 1159557);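 further: parasites exposed to compound for 48 h before the resazurin readout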

| IC50 | SMILES |
| --- | --- |
| 6.3 µM | Cc1cn[nH]c1C1CCCN(Cc2nc3ccccc3n2C)C1 (centres undefined) |
| 0.63 µM | NCc1csc(Nc2cc(Oc3ccccc3)ncn2)n1 |
| 1 µM | Cc1nc(-c2ccncc2)ncc1C(C)NC(=O)c1ccc(Cl)s1 (centres undefined) |
| 5 µM | CC(C)Nc1nc(Cl)nc2ccccc12 |
| 32 µM | CCn1nccc1CN(C)C(=O)C=Cc1ccc(Cl)cc1 |
| 0.4 µM | Cc1[nH]n2c(=O)c3c(nc2c1-c1ccc(Br)cc1)CCCC3 |
| 0.79 µM | O=C(NCc1ccc(Cl)cc1)C1CN(C(=O)c2ccc(F)cc2)CCS1 (centres undefined) |
| 0.079 µM | COc1cnc2ccc(=O)n(CCN3CCC(NC(=O)c4ccc(Cl)cc4)CC3)c2c1 |
| > 40 µM (inactive) | COc1ccc(CN2CCCCC2c2nc(-c3cccnc3)no2)cc1 (centres undefined) |
| > 40 µM (inactive) | N#Cc1ccc(S(=O)(=O)N2CCN(Cc3cccc(-c4ccncc4)c3)CC2)cc1 |
| 6.3 µM | c1ccc(-c2nc(NC3CCCC3)c3ccccc3n2)nc1 |
| 0.16 µM | CC(C)(C)C(=O)Nc1cc(C2CC2)nn1-c1nc2c(c(=O)[nH]1)CCCC2 |
| 0.4 µM | Cc1c(Nc2cc(C3CC3)[nH]n2)ccc(C#N)c1Cl |
| 20 µM | Cc1cc2ncn(-c3ccc([N+](=O)[O-])cc3C#N)c2cc1C |
| 6.3 µM | O=C(COc1ncnc2cc([N+](=O)[O-])ccc12)NC(=O)NC1CCCCC1 |
| 25 µM | CN(C)Cc1ccc(N2CCC(NS(=O)(=O)c3ccc(Cl)cc3)CC2)cc1 |
| 0.63 µM | COc1ccc(OC)c(S(=O)(=O)N(Cc2c(F)cccc2F)[C@@H]2CCN(C#N)C2)c1 |
| 32 µM | Fc1ccccc1N1C[C@H]2CCN(c3cccnc3)C[C@H]2C1 |
| 25 µM | Cc1ccc2sc(NC(=O)Cn3cnc([N+](=O)[O-])n3)nc2c1 |
| 0.79 µM | COCCn1cnc2cc(NC(=O)C3CCCCC3)cc(C(=O)N3CCc4sccc4C3)c21 |
| 0.16 µM | CCc1c(C)nc(-n2nc(C)cc2NC(=O)COc2ccccc2F)[nH]c1=O |
| 16 µM | c1ccc(Nc2nc(-c3ccccn3)cc(N3CCOCC3)n2)cc1 |
| 0.5 µM | COc1cc(Cl)c(C)cc1NC(=O)c1ccc([N+](=O)[O-])s1 |
| > 50 µM (inactive) | O=C1CN(C(=O)c2cccc(Nc3ncc(-c4ccc5c(c4)OCO5)cn3)c2)CCN1 |
| 0.13 µM | Cc1cc(NC(=O)C2CCCCC2)n(-c2nc3c(c(=O)[nH]2)CCC3)n1 |
| 0.63 µM | Cc1nc(-c2nc(NCc3ccc(Cl)cc3)c3cccnc3c2O)n[nH]1 |

| IC50 | SMILES |
| --- | --- |
| 16 µM | N#Cc1nc(C=Cc2ccccc2)oc1NCc1cccnc1 |
| 32 µM | Clc1ccc(OCCN2CCCCC2c2cccnc2)c(Cl)c1 (centres undefined) |
| 0.2 µM | Cc1cc(NC(=O)CC2CCCCC2)n(-c2nc3c(c(=O)[nH]2)CCC3)n1 |
| > 40 µM (inactive) | Cc1nnnn1-c1cccc(C(=O)N2CCC[C@@]3(C)c4ncncc4CCC23)c1 (some centres undefined) |
| 25 µM | c1ccc(CNc2cccc3ccncc23)cc1 |
| 0.32 µM | O=C(NCC(c1cccs1)N1CCOCC1)c1ccc([N+](=O)[O-])o1 (centres undefined) |
| 7.9 µM | Cc1ccc(NC(=O)c2ccc(Cl)c(NC(=O)c3ccc([N+](=O)[O-])cc3)c2)cc1 |
| 6.3 µM | CCC(=O)Nc1ccc(-c2nc3ccc(Cl)cc3[nH]2)cc1 |
| 20 µM | COCc1cc(Nc2ccc(Cl)cc2)nc(-c2ccccn2)n1 |
| 5 µM | Cc1ccc2ccc(C(Nc3ccccn3)c3cccnc3)c(O)c2n1 (centres undefined) |
| 0.1 µM | Cc1ccc(NC(=O)c2ccnc(N3CCCC3)c2)cc1-c1cc(C(N)=O)ccc1C |
| 0.025 µM | CC(=O)Nc1ccc(-c2csc(NC(=O)c3ccc([N+](=O)[O-])s3)n2)cc1 |
| > 40 µM (inactive) | CCc1cccc(-n2nc(OCC(=O)NC3CCCC3)c3cccnc32)c1 |
| 20 µM | C=CCn1nc([N+](=O)[O-])nc1Oc1ccc(Cl)cc1Cl |
| 16 µM | CCOc1ccc(NC(=O)C=Cc2ccc(CC)o2)cc1 |
| 0.4 µM | N#Cc1cc(-c2ccnc(Nc3cccc(CN4CCOCC4)c3)n2)ccc1NCCN |
| 6.3 µM | COc1ccc(C(=O)[C@H]2C[C@@H]2CN(Cc2ccccn2)Cc2ccccn2)cc1 |
| > 40 µM (inactive) | COc1ccccc1C=CCN1C[C@H]2CCC[C@@H](C1)C2(O)c1cccnc1 (some centres undefined) |
| > 40 µM (inactive) | O=C(c1cnn(-c2ccccc2)n1)N1CCCC(n2ccnc2)C1 (centres undefined) |
| 1 µM | O=C(NCC1CCCCC1)c1cnns1 |
| 16 µM | COc1cccc(C(=O)[C@H]2C[C@@H]2CN(Cc2ccccn2)Cc2ccccn2)c1 |
| 1 µM | O=C(NC1CCN(C2Cc3ccc(NS(=O)(=O)c4cc(F)cc(F)c4)cc3C2)CC1)C1CC1 (centres undefined) |
| 0.32 µM | O=S1N=C(NCCCN(Cc2ccc(F)cc2)c2ccccn2)C(NCc2ccncc2)=N1 (centres undefined) |
| 0.013 µM | Cc1cc(Nc2cc(C3CC3)[nH]n2)nc(N2CCC[C@H]2C(N)=O)n1 |
| > 40 µM (inactive) | CC1(Oc2cncc(Cl)c2)CCN(Cc2cc3ccccc3[nH]2)C1 (centres undefined) |
| 0.25 µM | CCOc1ccc(N(C)S(=O)(=O)c2ccc3[nH]cc(C(=O)NC4CCCC4)c(=O)c3c2)cc1 |

| IC50 | SMILES |
| --- | --- |
| 25 µM | CN(C)Cc1ccc(-c2ccc(S(=O)(=O)NCC3CCCO3)c(F)c2)cc1 (centres undefined) |
| 0.2 µM | CN(C(=O)Nc1ccc2c(c1)CCN(C1CCC1)CC2)c1ccc(C#N)cc1 |
| 0.2 µM | CCOc1ccc(NC(=O)c2ccc(NC(=O)NC3CCCCC3)cc2)cc1 |
| 25 µM | CCCN1CCN(Cc2ccc(S(=O)(=O)Nc3cccc(C)c3)cc2)CC1 |
| 25 µM | COc1ccc([N+](=O)[O-])cc1NC(=O)c1cc(Cl)ccc1O |
| 0.63 µM | CC(C)(C)CC(=O)NCc1noc(COc2ccccc2)n1 |
| > 40 µM (inactive) | O=[N+]([O-])c1cccc(Nc2cncc(-c3ccccc3CO)c2)c1 |
| 0.79 µM | O=C(Nc1ccc(C(F)(F)F)cc1)NC1(C(=O)NCc2ccco2)CCCCC1 |
| 0.32 µM | CCN(CC)S(=O)(=O)c1ccc(C)c(NC(=O)c2cc(Cl)c3c(c2)OCO3)c1 |
| 16 µM | CS(=O)(=O)NC1CCC(Oc2cc3cnccc3cc2-c2ccsc2)CC1 (centres undefined) |
| 20 µM | COc1ccc(S(=O)(=O)NC(C)C)cc1Nc1ncc(-c2cccc(F)c2)cn1 |
| 6.3 µM | CC1CN(S(=O)(=O)c2ccc(NC(=O)c3cc(C4CC4)nc4c3cnn4C(C)C)cc2)CC(C)O1 (centres undefined) |
| 13 µM | Cc1nc2c(-c3nc(-c4ccc(N)cc4)n[nH]3)cccn2c1C |
| 0.4 µM | Cc1occc1C(=O)Nc1ccccc1C(=O)Nc1nccs1 |
| 7.9 µM | CCCn1c(NC(=O)CCn2cc(Br)cn2)nc2ccccc21 |
| 2 µM | CN(C)c1ccc(-c2cc3nccnc3c(OC[C@H]3CCCNC3)n2)cn1 |
| 5 µM | COc1ccc(NS(=O)(=O)c2cc(NC(=O)Cc3ccc(C)cc3)ccc2N2CCOCC2)cc1 |
| 0.63 µM | CC(=O)NC1(c2ccccc2)CCN(CC(=O)Nc2ccccc2-c2ccccc2)CC1 |
| > 40 µM (inactive) | O=C1CCCCCC1(Cc1cnc[nH]1)c1ccc(Cl)cc1Cl (centres undefined) |
| 20 µM | CCCc1nc2nc(N)nc(N)c2cc1CC |
| 16 µM | COc1cc(-c2nc(N3CCOCC3)sc2-c2ccnc(NC3CCOCC3)n2)ccc1Cl |
| > 40 µM (inactive) | Cc1nc(C(=O)Nc2ccc3c(c2)OCO3)nn1-c1ccc(Cl)cc1 |
| 16 µM | Cc1ccc(NC(=O)C(C)n2nc([N+](=O)[O-])c(Br)c2C)cc1Cl (centres undefined) |
| 25 µM | COCCn1c(-c2ccccc2)cnc1NCc1ccccc1OC |
| 0.05 µM | COc1ccc(NS(=O)(=O)c2cc(NC(=O)c3ccc([N+](=O)[O-])s3)ccc2OC)cc1 |

| SMILES | IC50 |
| --- | --- |
| CNC(=O)Oc1ccc(C(=O)NCc2ccccc2)cc1OC(=O)NC | 0.13 µM |
| O=[N+]([O-])c1ccc(C2=CC(c3ccccc3)=NCCN2)cc1 | 6.3 µM |
